Type in all cases: in vivo
The subject of experiment [1] is apple tree leaves on the orchard floor. Put plainly: Leaf area degradation by leaf area scanner, first trial. The settings on record: for Average leaf area reduction: leaf area scanning method. The protocol:
(§1) At 95% leaf drop, two populations of autumn leaves were collected: 1) yellow leaves (yellow leaves ready to fall; harvested from the treatment trees and placed into wire grids; and 2) brown leaves (brown leaves which have fallen but not yet showing visible degradation collected from the orchard floor and placed into wire grids).
(§2) The following treatments were tested: 1) untreated control (no application); 2) water control (1000 L water per hectare); 3) urea ([…] per 1000 L per hectare); and 4) soluble yeast cell wall derivatives (Lallemand) (5 kg dry matter/ha; 10 L/ha in 1000 L water per hectare).
(§3) Treatments were applied to the soil using a non-mechanised back pack sprayer as applicator, in a one meter radius around the tree stem (grids were placed within this circumference).
(§4) Treatment application times: 1) 95% leaf drop; 2) 95% leaf drop+two weeks; and 3) 95% leaf drop+four weeks.
Leaf degradation was expressed as the reduction in leaf area (mm^2) based on readings taken with a leaf area scanner (LI-COR, LI-3050C Transparent Belt Conveyor). Samples were placed onto a transparent conveyor belt which allowed the leaf to pass through the scanning head. The accumulated leaf area was determined by passing all leaves of a grid through the scanner and subsequently an average per leaf area (mm 2).

For experiment [2], the system named is Venturia inaequalis ascospores. The experiment in a line: Ascospore projection from overwintered leaves (Kollar waterbath protocol). To be noted: M2: one application at 50 kg/ha (30% fallen leaves); untreated control 139. The procedure: The objective of this trial was to evaluate the efficacy of the soluble yeast cell wall derivatives on their ability to reduce the apple scab inoculum (i.e. ascospores) on overwintering leaves.
The trial was carried out on a “Gala” apple variety in an orchard severely affected by apple scab.
The following treatments were tested: M1: untreated control; M2: urea, one application at […]: soluble yeast cell wall derivatives (Lallemand), one application at 5 l/ha (30% fallen leaves); M4: soluble yeast cell wall derivatives, one application at 10 l/ha (30% fallen leaves); M5: soluble yeast cell wall derivatives, two applications at 10 l/ha (first application at beginning of leaf drop and second application at 30% fallen leaves). Each treatment had three replicates.
One batch of 100 g of leaves per replication was placed in plastic mesh bags with fine mesh on the outdoor ground, in orchard conditions. Treatments were applied in November to the trees using a backpack sprayer (SOLO) at a volume of 1000 L/ha. […]
The ascospore projection of Venturia inaequalis was evaluated in March. […]
All meteorological records came from the SudAgroMétéo station on the SudExpé Marsillargues site. […] The results were analyzed using a one-way ANOVA and multiple comparisons of the mean were analysed using a Tukey post-hoc test at 5% threshold. […]

Experiment [3] concerns apple tree leaves on the orchard floor. Put plainly: Visual in-field leaf degradation rating per grid, first trial.
Text: The objective of this trial was to establish the potential of soluble yeast cell wall derivatives to accelerate degradation of apple tree leaves on the orchard floor thereby reducing overwintering potential of apple scab (Venturia inaequalis).
as §1, §2, §3, §4
All evaluations were done separately on each of the two leaf populations selected at the start of the trial.
Leaf degradation according to a 0-9 scale, on a per grid estimate, reflecting the surface area which has decomposed; with “0” representing no degradation, “3” being approx. 30% degradation, “6” representing 60% degradation, and “9” complete degradation. […]

The mark [4] stands for this setting: brown leaves, 4 weeks after the last application.
Where [5] appears, read: brown leaves, 8 weeks after the last application.
[6] abbreviates: brown leaves, 10 weeks after the last application.
[7] abbreviates: yellow leaves, 6 weeks after the last application.
Where [8] appears, read: yellow leaves, 8 weeks after the last application.
Setting [9] is: yellow leaves, 10 weeks after the last application.

Turning to `NC(N)=O` [urea], the “Leaf area reduction relative to the water control” value in experiment [1] (brown leaves) was “(+52%)”; in experiment [1] (yellow leaves), “(+10%)”. For the same molecule, the “Average leaf area reduction” value in experiment [1] (brown leaves) amounted to 14.1 bc mm^2; in experiment [1] (yellow leaves), 15.0 abc mm^2. Besides, in experiment [2], the “Average concentration of apple scab ascospores discharged in the overwintered leaves” value was 39 ascospores/μl. Further, the “Average leaf degradation score in the sampling grids, degradation category (scale 0-9)” value in experiment [3] (setting [4]) worked out at 1.0; in experiment [3] (brown leaves, 6 weeks after the last application), 2.2 ab; in experiment [3] (setting [5]) it was 3.2 ab; in experiment [3] (setting [6]), 4.3 ab; in experiment [3] (brown leaves, 12 weeks after the last application) it was 5.7 ab; in experiment [3] (yellow leaves, 4 weeks after the last application), 1.3a. Besides, the “Average leaf degradation score in the sampling grids, degradation category (scale 0-9)” value in experiment [3] (setting [7]) amounted to 2.5a; in experiment [3] (setting [8]) it was 3.2a; in experiment [3] (setting [9]), 3.8 a; in experiment [3] (yellow leaves, 12 weeks after the last application) it was 5.3ab. Besides, the “percentage by which leaf degradation of a treatment exceeded the water control” value in experiment [3] (setting [4]) is on record as “(+43%)”; in experiment [3] (setting [5]), “(+60%)”; in experiment [3] (setting [6]) it was “(+34%)”; in experiment [3] (setting [7]), “(+39%)”; in experiment [3] (setting [8]) it was “(+14%)”; in experiment [3] (setting [9]), “(+9%)”. Also, the leaf degradation reached in experiment [3] (first trial, 12 weeks after the last application, cold weather, lack of rains) is ≤ 50%.
